T1: rat dynamin (Rattus norvegicus, UniProt P21575)
T1 sequence (P21575 1-864): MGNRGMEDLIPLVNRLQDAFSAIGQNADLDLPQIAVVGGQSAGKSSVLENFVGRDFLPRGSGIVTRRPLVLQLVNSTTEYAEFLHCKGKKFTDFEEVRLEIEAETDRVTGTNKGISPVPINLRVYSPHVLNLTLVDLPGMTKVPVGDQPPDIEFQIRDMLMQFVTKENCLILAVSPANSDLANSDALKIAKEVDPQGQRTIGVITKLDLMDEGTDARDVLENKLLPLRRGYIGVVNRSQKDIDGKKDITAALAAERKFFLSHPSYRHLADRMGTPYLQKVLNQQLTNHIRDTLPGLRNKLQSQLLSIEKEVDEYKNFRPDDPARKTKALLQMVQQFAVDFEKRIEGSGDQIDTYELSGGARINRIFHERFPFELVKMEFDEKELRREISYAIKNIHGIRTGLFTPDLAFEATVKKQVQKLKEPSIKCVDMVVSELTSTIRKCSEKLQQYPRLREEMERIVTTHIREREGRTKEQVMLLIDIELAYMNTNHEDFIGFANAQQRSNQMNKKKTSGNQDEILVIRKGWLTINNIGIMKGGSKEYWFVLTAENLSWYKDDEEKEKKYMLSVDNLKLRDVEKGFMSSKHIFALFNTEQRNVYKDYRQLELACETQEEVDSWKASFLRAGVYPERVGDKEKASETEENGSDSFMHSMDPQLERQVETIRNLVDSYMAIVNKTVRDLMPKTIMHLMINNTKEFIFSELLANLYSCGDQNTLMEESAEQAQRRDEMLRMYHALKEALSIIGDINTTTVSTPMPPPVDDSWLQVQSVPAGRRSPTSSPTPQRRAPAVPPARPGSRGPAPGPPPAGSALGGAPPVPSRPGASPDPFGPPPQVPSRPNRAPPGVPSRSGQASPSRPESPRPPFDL

T2: DYN-1 (Caenorhabditis elegans, UniProt P39055)
T2 sequence (P39055 1-830): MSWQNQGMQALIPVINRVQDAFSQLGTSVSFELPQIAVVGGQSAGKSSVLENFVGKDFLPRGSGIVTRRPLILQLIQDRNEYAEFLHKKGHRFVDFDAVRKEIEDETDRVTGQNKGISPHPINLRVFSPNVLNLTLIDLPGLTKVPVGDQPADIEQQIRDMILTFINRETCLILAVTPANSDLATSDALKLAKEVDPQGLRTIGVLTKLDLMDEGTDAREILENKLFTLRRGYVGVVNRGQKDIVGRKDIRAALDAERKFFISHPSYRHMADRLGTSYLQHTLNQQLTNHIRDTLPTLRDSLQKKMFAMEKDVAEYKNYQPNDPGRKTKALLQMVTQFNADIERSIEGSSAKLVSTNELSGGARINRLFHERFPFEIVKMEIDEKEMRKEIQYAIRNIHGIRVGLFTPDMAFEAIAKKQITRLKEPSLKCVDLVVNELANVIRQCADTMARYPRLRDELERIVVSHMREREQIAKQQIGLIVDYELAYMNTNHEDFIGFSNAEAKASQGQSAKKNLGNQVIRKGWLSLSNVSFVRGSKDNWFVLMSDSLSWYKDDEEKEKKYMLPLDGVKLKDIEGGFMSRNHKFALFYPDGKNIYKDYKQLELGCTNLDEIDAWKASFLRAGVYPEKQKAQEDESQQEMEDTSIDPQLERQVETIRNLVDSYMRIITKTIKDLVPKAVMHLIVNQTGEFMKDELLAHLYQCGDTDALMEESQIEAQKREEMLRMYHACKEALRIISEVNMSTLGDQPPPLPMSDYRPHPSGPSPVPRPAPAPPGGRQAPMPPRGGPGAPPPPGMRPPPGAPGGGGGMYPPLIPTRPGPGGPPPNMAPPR


Columns and labels:
[1] = target: T1, rat dynamin; test: […] release from [γ-32P]GTP, charcoal assay; assay type: biochemical; details: 1 mM GTP, 150 mM NaCl, with or without lipid; labelled compound
[2] = target: T2, DYN-1; test: […] release from [γ-32P]GTP, charcoal assay; assay type: biochemical; details: 1 mM GTP, 150 mM NaCl, with or without lipid; labelled compound
[3] = target: the molecule itself; test: cryo-TEM of protein incubated with liposomes

Row | Molecule | 32P release from [γ-32P]GTP, charcoal assay [1] | 32P release from [γ-32P]GTP, charcoal assay [2] | binding result [3]
1 | Nc1nc2c(ncn2[C@@H]2O[C@H](COP(=O)(O)OP(=O)(O)OP(=O)(O)O)[C@@H](O)[C@H]2O)c(=O)[nH]1 [GTP] | DYN-1 displayed a low basal-level GTP hydrolysis activity as rat dynamin did | C. elegans DYN-1 displayed a low basal-level GTP hydrolysis activity | –
2 | recombinant DYN-1(G40E) purified from SF21 insect cells (natural protein, C. elegans, UniProt P39055 1-830, looked up) MSWQNQGMQALIPVINRVQDAFSQLGTSVSFELPQIAVVEGQSAGKSSVLENFVGKDFLPRGSGIVTRRPLILQLIQDRNEYAEFLHKKGHRFVDFDAVRKEIEDETDRVTGQNKGISPHPINLRVFSPNVLNLTLIDLPGLTKVPVGDQPADIEQQIRDMILTFINRETCLILAVTPANSDLATSDALKLAKEVDPQGLRTIGVLTKLDLMDEGTDAREILENKLFTLRRGYVGVVNRGQKDIVGRKDIRAALDAERKFFISHPSYRHMADRLGTSYLQHTLNQQLTNHIRDTLPTLRDSLQKKMFAMEKDVAEYKNYQPNDPGRKTKALLQMVTQFNADIERSIEGSSAKLVSTNELSGGARINRLFHERFPFEIVKMEIDEKEMRKEIQYAIRNIHGIRVGLFTPDMAFEAIAKKQITRLKEPSLKCVDLVVNELANVIRQCADTMARYPRLRDELERIVVSHMREREQIAKQQIGLIVDYELAYMNTNHEDFIGFSNAEAKASQGQSAKKNLGNQVIRKGWLSLSNVSFVRGSKDNWFVLMSDSLSWYKDDEEKEKKYMLPLDGVKLKDIEGGFMSRNHKFALFYPDGKNIYKDYKQLELGCTNLDEIDAWKASFLRAGVYPEKQKAQEDESQQEMEDTSIDPQLERQVETIRNLVDSYMRIITKTIKDLVPKAVMHLIVNQTGEFMKDELLAHLYQCGDTDALMEESQIEAQKREEMLRMYHACKEALRIISEVNMSTLGDQPPPLPMSDYRPHPSGPSPVPRPAPAPPGGRQAPMPPRGGPGAPPPPGMRPPPGAPGGGGGMYPPLIPTRPGPGGPPPNMAPPR | – | – | binds

Reference: PMC2820425 (Molecular Biology of the Cell, 2010)
